Test results: US10227331B2 (priority 2015, dated 2019)
pIC50: −log10 of the molar value.

Key:
[1] = tested on: P. aeruginosa expressing IMP-1, efflux+ (MB9798); assay type: cell-based, Pseudomonas aeruginosa; details: for P. aeruginosa expressing IMP-1, efflux+ (MB9798) MITC95: imipenem at 2 μg/mL, in the presence of a class A, C, D serine β-lactamase inhibitor closely related to relebactam; for Efflux ratio: ratio MITC95 PA_9798/MITC95 PA_9799
From the text: (§1) The strain background is Pseudomonas aeruginosa PAO1.

[2] = tested on: Klebsiella pneumoniae expressing VIM-1 (IHMA599644); assay type: cell-based; details: with imipenem 1 μg/ml, 95% inhibition of bacterial growth; for Klebsiella pneumoniae MITC95: VIM-1 (IHMA599644)
Method: (§2) Antibiotic Potentiation Activity: Determination of Synergistic Concentration
(§3) The bacterial strains tested included the clinical strains Escherichia coli expressing NDM-1 (CLB30005, CLB30016), Serratia marcescens expressing IMP-1 (CL5741), and Klebsiella pneumoniae expressing VIM-1 (IHMA599644). Inhibitor activity was measured in the presence and absence of imipenem in a 384-well microplate.
(§4) The clinical strains CLB30016, CL5741 and IHMA599644 were grown on trypticase soy agar containing 5% sheep's blood. The bacteria on agar plates were incubated at 35° C. with humidity overnight. The following day, individual colonies from each clinical strain were picked and resuspended in 5 ml saline to attain an OD600 of […], for CLB30016, CL5741 and IHMA599644, respectively. These were further diluted 1:100 into 1.1×CAMHB and used to inoculate the test wells as described below.
(§5) Imipenem in 10 mM 3-(N-morpholino)propanesulfonic acid (MOPS, pH 7) was stored in single use aliquots at −80° C. […] On the day of the assay, 4 μl of antibiotic was added to 45 ul of bacteria followed by 1 μl of test compound and mixed by pipetting and with an orbital shaker. The concentration of antibiotic used in the assay was 1 μg/ml. Microplates were covered and incubated at 35° C. for 22 hours to 24 hours. At the end of the incubation, absorbance was determined using a spectrophotometer.
(§6) For example, in general, the compounds of Examples 1-379 were determined to restore susceptibility to imipenem for one or more of the test organisms at concentrations of 100 μM or less.

[3] = tested on: Serratia marcescens expressing IMP-1 (CL5741); assay type: cell-based; details: with imipenem 1 μg/ml, 95% inhibition of bacterial growth; for Serratia marcescens MITC95: IMP-1 (CL5741)
Method: as §2, §3, §4, §5, §6

[4] = tested on: Escherichia coli expressing NDM-1 (CLB30005, CLB30016); assay type: cell-based; details: with imipenem 1 μg/ml, 95% inhibition of bacterial growth; for Escherichia coli MITC95: NDM-1 (CLB30016)
Method: as §2, §3, §4, §5, §6

[5] = tested on: P. aeruginosa expressing IMP-1, efflux− (MB9799); assay: Efflux: concentration of MBL inhibitor which restores susceptibility to imipenem; assay type: cell-based, Pseudomonas aeruginosa; details: imipenem at 2 μg/mL, in the presence of a class A, C, D serine β-lactamase inhibitor closely related to relebactam
From the text: as §1

VIM-1 = VIM-1 (Pseudomonas aeruginosa (strain ATCC 15692 / DSM 22644 / CIP 104116 / JCM 14847 / LMG 12228 / 1C / PRS 101 / PAO1), UniProt A0A0F7KYQ8); assay: biochemical; details: CCF2-FA substrate, 2 hours at 25° C
Method: (§7) Enzyme Activity: Determination of IC50
(§8) The Class B enzyme activities were measured in the presence of the test inhibitor in a fluorescence assay against a commercially available substrate consisting of a cephalosporin core linking 7-hydroxycoumarin to fluorescein (CCF2-FA). […] In a 384-well microplate, the test inhibitor was incubated with the metallo-β-lactamase enzyme and the substrate for 2 hours at 25° C. […] The IC50 value was determined from semi-logarithmic plots of enzyme inhibition versus inhibitor concentration, with a curve generated using a 4-parameter fit.

NDM-1 = NDM-1 (Klebsiella pneumoniae, UniProt C7C422); assay: biochemical; assay type: biochemical; details: CCF2-FA substrate, 2 hours at 25° C; read-out: NDM-1 IC50
Method: as §7, §8

IMP-1 = IMP-1 (Serratia marcescens, UniProt P52699); assay: biochemical; assay type: biochemical; details: CCF2-FA substrate, 2 hours at 25° C; read-out: IMP-1 IC50
Method: as §7, §8

Sequence of IMP-1 (P52699 whole entry, looked up, species assumed): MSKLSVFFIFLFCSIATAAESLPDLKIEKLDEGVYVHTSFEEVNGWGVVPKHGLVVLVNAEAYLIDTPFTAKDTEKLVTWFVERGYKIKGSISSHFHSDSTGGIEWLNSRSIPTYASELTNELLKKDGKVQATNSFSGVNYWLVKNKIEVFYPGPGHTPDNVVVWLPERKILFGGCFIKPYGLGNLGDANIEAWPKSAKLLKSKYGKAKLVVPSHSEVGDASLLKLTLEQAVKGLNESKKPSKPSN
Sequence of NDM-1 (C7C422 whole entry, looked up, species assumed): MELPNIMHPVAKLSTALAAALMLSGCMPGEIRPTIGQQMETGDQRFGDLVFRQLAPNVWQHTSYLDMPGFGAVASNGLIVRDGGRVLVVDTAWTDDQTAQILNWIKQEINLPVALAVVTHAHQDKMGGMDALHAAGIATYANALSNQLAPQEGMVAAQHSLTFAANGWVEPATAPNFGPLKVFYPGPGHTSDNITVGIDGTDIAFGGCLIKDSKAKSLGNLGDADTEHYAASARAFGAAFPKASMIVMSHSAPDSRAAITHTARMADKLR

Row | SMILES | P. aeruginosa expressing IMP-1, efflux+ (MB9798) MITC95 [1] | Efflux ratio [1] | Klebsiella pneumoniae MITC95 [2] | Serratia marcescens MITC95 [3] | Escherichia coli MITC95 [4] | P. aeruginosa expressing IMP-1, efflux− (MB9799) MITC95 [5] | pIC50 (VIM-1) | pIC50 (NDM-1) | pIC50 (IMP-1) | Klebsiella pneumoniae expressing VIM-1 (IHMA599644) MITC95 [2] | Serratia marcescens expressing IMP-1 (CL5741) MITC95 [3] | Escherichia coli expressing NDM-1 (CLB30016) MITC95 [4]
1 | CNC(=O)c1nc2c(-c3ccc(S(=O)(=O)C4CNC4)c(S(N)(=O)=O)c3-c3nn[nH]n3)cccc2[nH]1 [Example 255, 4-(4-(Azetidin-3-ylsulfonyl)-3-sulfamoyl-2-(2H-tetrazol-5-yl)phenyl)-N-methyl-1H-benzo[d]imidazole-2-carboxamide] | 12.5 µM | 4.00 | 12.5 µM | 6.25 µM | 6.25 µM | 3.125 µM | 9.38 | 9.82 | 8.78 |  |  | 
2 | Nc1nc2cc(-c3ccc(SC4CNC4)c(S(N)(=O)=O)c3-c3nn[nH]n3)ccc2[nH]1 [Example 1, 3-(2-amino-1H-benzo[d]imidazol-5-yl)-6-(azetidin-3-ylthio)-2-(2H-tetrazol-5-yl)benzenesulfonamide] | 50 µM | 8.00 |  |  |  | 6.25 µM | 6.85 | 7.68 | 6.37 | 6.25 µM | 6.25 µM | 0.3906 µM
3 | NC(=O)N1CC(S(=O)(=O)c2ccc(-c3cccc4[nH]c(N)nc34)c(-c3nn[nH]n3)c2S(N)(=O)=O)C1 [Example 56, 3-(4-(2-amino-1H-benzo[d]imidazol-4-yl)-2-sulfamoyl-3-(2H-tetrazol-5-yl)phenylsulfonyl)azetidine-1-carboxamide] | 3.125 µM | 1.00 |  |  |  | 3.125 µM | 9.46 | 9.74 | 8.55 | 6.25 µM | 3.125 µM | 6.25 µM
4 | NCCS(=O)(=O)c1ccc(-c2cccc(-n3cccn3)c2)c(-c2nnn[nH]2)c1S(N)(=O)=O.O=C(O)C(F)(F)F [Example 156, 2-((3′-(1H-pyrazol-1-yl)-3-sulfamoyl-2-(1H-tetrazol-5-yl)-[1,1′-biphenyl]-4-yl)sulfonyl)ethanaminium 2,2,2-trifluoroacetate] | 50 µM | 31.99 |  |  |  | 1.563 µM | 9.13 | 8.97 | 9.01 | 6.25 µM | 1.563 µM | 0.7813 µM
5 | NC(=O)N1CC(S(=O)(=O)c2ccc(-c3ccc(NS(=O)(=O)C4CC4)cc3)c(-c3nn[nH]n3)c2S(N)(=O)=O)C1 [Example 246, 3-((4′-(cyclopropanesulfonamido)-3-sulfamoyl-2-(2H-tetrazol-5-yl)-[1,1′-biphenyl]-4-yl)sulfonyl)azetidine-1-carboxamide] | 12.5 µM |  | 25 µM | 12.5 µM | 50 µM | 3.125 µM | 9.86 |  | 9.99 |  |  | 
6 | NS(=O)(=O)c1c(S(=O)(=O)C2CNC2)ccc(-c2cccc3scnc23)c1-c1nn[nH]n1 [Example 201, 6-(Azetidin-3-ylsulfonyl)-3-(benzo[d]thiazol-4-yl)-2-(2H-tetrazol-5-yl)benzenesulfonamide] | 1.563 µM | 2.00 |  |  |  | 0.7813 µM | 9.75 | 10.02 | 9.82 | 3.125 µM | 1.563 µM | 0.7813 µM
7 | NC[C@@H](CO)S(=O)(=O)c1ccc(-c2cccc3nc(N)[nH]c23)c(-c2nn[nH]n2)c1S(N)(=O)=O [Example 358, (S)-3-(2-amino-1H-benzo[d]imidazol-7-yl)-6-((1-amino-3-hydroxypropan-2-yl)sulfonyl)-2-(1H-tetrazol-5-yl) benzenesulfonamide] | 0.7813 µM | 1.00 | 1.563 µM | 0.7813 µM | 0.7813 µM | 0.7813 µM | 9.10 | 9.66 | 8.94 |  |  | 
8 | CS(=O)(=O)Nc1nc2c(-c3ccc(S(=O)(=O)C4CCNCC4)c(S(N)(=O)=O)c3-c3nn[nH]n3)cccc2s1 [Example 325, 3-(2-(methylsulfonamido)benzo[d]thiazol-4-yl)-6-(piperidin-4-ylsulfonyl)-2-(2H-tetrazol-5-yl)benzenesulfonamide] | 6.25 µM | 1.00 | 25 µM | 12.5 µM | 12.5 µM | 6.25 µM | 9.46 | 10.14 | 9.62 |  |  | 
9 | NC[C@H](O)CS(=O)(=O)c1ccc(-c2cccc3sc(N)nc23)c(-c2nn[nH]n2)c1S(N)(=O)=O [Example 281, 6-((S)-3-amino-2-hydroxypropylsulfonyl)-3-(2-aminobenzo[d]thiazol-4-yl)-2-(2H-tetrazol-5-yl)benzenesulfonamide] | 0.3906 µM |  | 1.563 µM | 0.7813 µM | 0.7813 µM | 0.7813 µM | 9.87 | 10.25 |  |  |  | 
10 | Nc1nc2ccc(-c3ccc(S(=O)(=O)C4CCNCC4)c(S(N)(=O)=O)c3-c3nn[nH]n3)cc2[nH]1 [Example 41, 3-(2-amino-3H-benzo[d]imidazol-5-yl)-6-(piperidin-4-ylsulfonyl)-2-(2H-tetrazol-5-yl)benzenesulfonamide] | 3.125 µM | 4.00 |  |  |  | 0.7813 µM | 9.77 |  |  | 1.563 µM | 1.563 µM | 1.563 µM
11 | Nc1nc2nccc(-c3ccc(S(=O)(=O)C4CNC4)c(S(N)(=O)=O)c3-c3nnn[nH]3)c2[nH]1 [Example 302] | 200 µM | 16.00 | 6.25 µM | 12.5 µM | 3.125 µM | 12.5 µM | 8.00 |  |  |  |  | 
12 | Nc1nc2cc(-c3ccc([S+]([O-])C4CNC4)c(S(N)(=O)=O)c3-c3nn[nH]n3)ccc2[nH]1 (centres unmarked) [Example 11, 3-(2-amino-1H-benzo[d]imidazol-5-yl)-6-(azetidin-3-ylsulfinyl)-2-(2H-tetrazol-5-yl)benzenesulfonamide] | 3.125 µM | 8.00 |  |  |  | 0.3906 µM | 8.73 |  |  | 0.3906 µM | 0.7813 µM | 0.3906 µM
